Experimental data reported in publication PMC3833278, “De Novo Design of Protein Kinase Inhibitors by in Silico Identification of Hinge Region-Binding Fragments” (ACS Chemical Biology, 2013).

Key:
Type in all cases: biochemical
[1] = tested on: panel of 117 protein kinases; test: Kinase panel screen at 100 μM, radioactive filter-binding assay; details: for number of kinases inhibited with >40% inhibition: panel of 117 kinases; for number of kinases of the docking panel for which activity was found: only kinases in the docking panel
Protocol: (§1) A subset of library compounds was tested against a panel of 117 protein kinases as proof of concept study (Figure 4). The compounds were chosen to cover all six core fragments and to be fragment-sized (MW < 300 Da), therefore having a higher probability of inhibiting a kinase compared to more elaborated library compounds with the potential draw-back of having only moderate binding affinity.[25] […] According to these definitions, all assayed compounds were at least moderately active against at least one kinase (Figure 5a).
(§2) Selected compounds were screened against a panel of mammalian kinases routinely run in the MRC Protein Phosphorylation Unit at the University of Dundee (www.kinase-screen.mrc.ac.uk).[21] Compounds were supplied in DMSO and screened in duplicates at 100 μM concentration using a radioactive (^33P-ATP) filter-binding-assay. For hit validation and all subsequent IC50 determinations, selected compounds were solubilized in DMSO at a top concentration of 51 mM and serially diluted to achieve 10-point titration of final assay concentrations from 1 mM to 30 nM. All IC50 determination assays were done in duplicate and the IC50 values were calculated using Prism (GraphPad Software, Inc.). All biochemical assays were run below the Km^app for the ATP for each enzyme allowing comparison of inhibition across the panel.

CDK2 = CDK2 (Homo sapiens, UniProt P24941); test: Radioactive (33P-ATP) filter-binding kinase assay, IC50
CK2 = molecular target: T1, CK2 (Homo sapiens, UniProt P68400); test: as above
T1 construct: MRC Protein Phosphorylation Unit, University of Dundee (screening panel)
Protocol: as §2

IGF-1R = molecular target: T2, IGF-1R (Homo sapiens, UniProt P08069); test: as above
T2 construct: MRC Protein Phosphorylation Unit, University of Dundee (screening panel)
Protocol: as §2

FGF-R1 = molecular target: T3, FGF-R1 (Homo sapiens, UniProt P11362); test: as above
T3 construct: MRC Protein Phosphorylation Unit, University of Dundee (screening panel)
Protocol: as §2

TAK1 = molecular target: T4, TAK1 (Homo sapiens, UniProt O43318); test: as above
T4 construct: MRC Protein Phosphorylation Unit, University of Dundee (screening panel)
Protocol: as §2

GCK = molecular target: T5, GCK (Homo sapiens, UniProt Q12851); test: as above
T5 construct: MRC Protein Phosphorylation Unit, University of Dundee (screening panel)
Protocol: as §2

Aurora A = molecular target: T6, Aurora A (Homo sapiens, UniProt O14965); test: as above
T6 construct: MRC Protein Phosphorylation Unit, University of Dundee (screening panel)
Protocol: as §2

CLK2 = CLK2 (Homo sapiens, UniProt P49760); test: as above
VEG-FR = VEG-FR (Homo sapiens, UniProt P35968); test: as above
Src = molecular target: T7, Src (Homo sapiens, UniProt P12931); test: as above
T7 construct: MRC Protein Phosphorylation Unit, University of Dundee (screening panel)
Protocol: as §2

CHK2 = molecular target: T8, CHK2 (Homo sapiens, UniProt O96017); test: as above
T8 construct: MRC Protein Phosphorylation Unit, University of Dundee (screening panel)
Protocol: as §2

HER4 = molecular target: T9, HER4 (Homo sapiens, UniProt Q15303); test: as above
T9 construct: MRC Protein Phosphorylation Unit, University of Dundee (screening panel)
Protocol: as §2

YES1 = molecular target: T10, YES1 (Homo sapiens, UniProt P07947); test: as above
T10 construct: MRC Protein Phosphorylation Unit, University of Dundee (screening panel)
Protocol: as §2

PIM3 = molecular target: T11, PIM3 (Homo sapiens, UniProt Q86V86); test: as above
T11 construct: MRC Protein Phosphorylation Unit, University of Dundee (screening panel)
Protocol: as §2

PIM1 = molecular target: T12, PIM1 (Homo sapiens, UniProt P11309); test: as above
T12 construct: MRC Protein Phosphorylation Unit, University of Dundee (screening panel)
Protocol: as §2

MSK1 = molecular target: T13, MSK1 (Homo sapiens, UniProt O75582); test: Kinase panel screen at 100 μM, radioactive filter-binding assay
T13 construct: MRC Protein Phosphorylation Unit, University of Dundee (screening panel)
Protocol: as §1, §2

MKK1 = molecular target: T14, MKK1 (Homo sapiens, UniProt Q02750); test: as above
T14 construct: MRC Protein Phosphorylation Unit, University of Dundee (screening panel)
Protocol: as §1, §2

SRPK1 = molecular target: T15, SRPK1 (Homo sapiens, UniProt Q96SB4); test: Radioactive (33P-ATP) filter-binding kinase assay, IC50
T15 construct: MRC Protein Phosphorylation Unit, University of Dundee (screening panel)

MAPKAP-K3 = molecular target: T16, MAPKAP-K3 (Homo sapiens, UniProt Q16644); test: as above
T16 construct: MRC Protein Phosphorylation Unit, University of Dundee (screening panel)
Protocol: as §2

RSK2 = molecular target: T17, RSK2 (Homo sapiens, UniProt P51812); test: as above
T17 construct: MRC Protein Phosphorylation Unit, University of Dundee (screening panel)
Protocol: as §2

GSK-3β = GSK-3β (Homo sapiens, UniProt P49841); test: as above
SGK1 = molecular target: T18, SGK1 (Homo sapiens, UniProt O00141); test: as above
T18 construct: MRC Protein Phosphorylation Unit, University of Dundee (screening panel)
Protocol: as §2

EPH-B3 = molecular target: T19, EPH-B3 (Homo sapiens, UniProt P54753); test: as above
T19 construct: MRC Protein Phosphorylation Unit, University of Dundee (screening panel)
Protocol: as §2

T4 sequence (O43318 1-303 limits assumed): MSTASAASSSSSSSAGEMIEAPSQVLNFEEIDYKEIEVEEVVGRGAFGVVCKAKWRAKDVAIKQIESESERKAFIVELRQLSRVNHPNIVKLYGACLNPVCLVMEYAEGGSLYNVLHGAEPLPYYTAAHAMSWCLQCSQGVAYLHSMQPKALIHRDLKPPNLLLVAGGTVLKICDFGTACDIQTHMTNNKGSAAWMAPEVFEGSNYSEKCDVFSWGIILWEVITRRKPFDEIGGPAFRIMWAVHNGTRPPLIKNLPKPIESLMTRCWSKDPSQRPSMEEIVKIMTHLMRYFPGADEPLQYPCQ
T7 sequence (P12931 whole entry, species assumed): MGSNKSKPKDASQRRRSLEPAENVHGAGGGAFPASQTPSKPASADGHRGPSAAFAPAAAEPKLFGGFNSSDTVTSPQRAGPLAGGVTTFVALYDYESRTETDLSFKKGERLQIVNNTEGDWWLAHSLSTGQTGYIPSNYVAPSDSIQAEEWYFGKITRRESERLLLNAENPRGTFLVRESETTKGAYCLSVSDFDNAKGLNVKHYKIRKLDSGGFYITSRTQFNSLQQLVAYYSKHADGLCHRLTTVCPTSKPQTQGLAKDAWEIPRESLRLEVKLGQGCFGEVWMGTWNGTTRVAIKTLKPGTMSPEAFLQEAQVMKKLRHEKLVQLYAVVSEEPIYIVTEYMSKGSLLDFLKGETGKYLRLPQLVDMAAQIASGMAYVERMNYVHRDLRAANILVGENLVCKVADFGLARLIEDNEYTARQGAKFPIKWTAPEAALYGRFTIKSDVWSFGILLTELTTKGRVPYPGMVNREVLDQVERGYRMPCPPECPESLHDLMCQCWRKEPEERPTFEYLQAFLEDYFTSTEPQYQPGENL
T5 sequence (Q12851 whole entry): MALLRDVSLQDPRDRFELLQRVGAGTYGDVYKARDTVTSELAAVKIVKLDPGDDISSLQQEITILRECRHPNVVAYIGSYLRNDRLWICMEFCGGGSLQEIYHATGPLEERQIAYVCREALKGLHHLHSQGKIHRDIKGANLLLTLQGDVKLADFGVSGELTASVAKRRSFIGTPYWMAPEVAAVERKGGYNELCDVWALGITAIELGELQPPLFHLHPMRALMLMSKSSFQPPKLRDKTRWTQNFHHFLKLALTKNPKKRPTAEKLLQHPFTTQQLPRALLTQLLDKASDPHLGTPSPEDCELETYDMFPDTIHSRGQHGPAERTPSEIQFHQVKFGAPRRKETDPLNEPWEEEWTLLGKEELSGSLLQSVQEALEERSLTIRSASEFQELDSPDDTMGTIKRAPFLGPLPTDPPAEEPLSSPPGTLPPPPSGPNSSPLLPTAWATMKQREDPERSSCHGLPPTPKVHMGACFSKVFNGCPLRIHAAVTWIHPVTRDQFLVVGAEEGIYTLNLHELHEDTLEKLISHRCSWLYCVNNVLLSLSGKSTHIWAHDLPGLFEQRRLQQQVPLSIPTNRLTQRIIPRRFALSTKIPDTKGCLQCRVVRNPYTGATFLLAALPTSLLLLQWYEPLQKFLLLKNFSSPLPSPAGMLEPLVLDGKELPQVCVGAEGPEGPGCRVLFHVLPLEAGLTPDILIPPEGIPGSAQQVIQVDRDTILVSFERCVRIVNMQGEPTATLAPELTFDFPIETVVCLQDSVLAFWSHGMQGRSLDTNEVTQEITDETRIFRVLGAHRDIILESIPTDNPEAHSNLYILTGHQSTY
T3 sequence (P11362 22-822, species assumed): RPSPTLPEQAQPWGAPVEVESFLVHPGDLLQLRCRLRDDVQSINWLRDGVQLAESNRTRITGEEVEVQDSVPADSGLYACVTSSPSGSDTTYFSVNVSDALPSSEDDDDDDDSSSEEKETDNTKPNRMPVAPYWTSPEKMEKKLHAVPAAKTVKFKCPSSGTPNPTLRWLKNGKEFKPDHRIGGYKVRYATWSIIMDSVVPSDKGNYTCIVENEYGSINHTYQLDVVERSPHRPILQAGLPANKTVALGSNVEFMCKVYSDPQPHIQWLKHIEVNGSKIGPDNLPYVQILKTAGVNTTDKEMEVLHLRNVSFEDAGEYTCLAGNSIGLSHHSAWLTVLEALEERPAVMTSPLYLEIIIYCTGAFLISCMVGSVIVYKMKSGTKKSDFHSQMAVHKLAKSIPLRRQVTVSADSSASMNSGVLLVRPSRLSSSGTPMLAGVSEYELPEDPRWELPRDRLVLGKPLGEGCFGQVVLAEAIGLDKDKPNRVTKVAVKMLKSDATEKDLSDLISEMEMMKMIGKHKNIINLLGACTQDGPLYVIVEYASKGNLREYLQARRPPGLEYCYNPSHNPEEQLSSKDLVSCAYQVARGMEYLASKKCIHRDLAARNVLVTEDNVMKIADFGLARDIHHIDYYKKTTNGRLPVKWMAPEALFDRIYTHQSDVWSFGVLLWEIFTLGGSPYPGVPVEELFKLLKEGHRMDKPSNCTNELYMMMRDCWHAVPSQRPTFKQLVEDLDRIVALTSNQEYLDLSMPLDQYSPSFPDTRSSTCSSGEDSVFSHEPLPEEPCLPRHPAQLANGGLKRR
T1 sequence (P68400 whole entry): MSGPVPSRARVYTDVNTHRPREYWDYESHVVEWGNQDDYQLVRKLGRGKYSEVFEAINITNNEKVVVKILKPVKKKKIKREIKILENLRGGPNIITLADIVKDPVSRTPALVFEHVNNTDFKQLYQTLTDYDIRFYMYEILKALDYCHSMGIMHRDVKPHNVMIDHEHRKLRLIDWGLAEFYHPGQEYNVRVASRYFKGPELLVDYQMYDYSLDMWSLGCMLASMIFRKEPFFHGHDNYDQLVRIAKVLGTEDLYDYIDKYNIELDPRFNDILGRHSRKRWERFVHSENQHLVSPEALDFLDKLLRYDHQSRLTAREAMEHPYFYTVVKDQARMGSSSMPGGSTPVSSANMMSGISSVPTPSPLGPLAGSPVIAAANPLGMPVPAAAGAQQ
T2 sequence (P08069 31-1367, species assumed): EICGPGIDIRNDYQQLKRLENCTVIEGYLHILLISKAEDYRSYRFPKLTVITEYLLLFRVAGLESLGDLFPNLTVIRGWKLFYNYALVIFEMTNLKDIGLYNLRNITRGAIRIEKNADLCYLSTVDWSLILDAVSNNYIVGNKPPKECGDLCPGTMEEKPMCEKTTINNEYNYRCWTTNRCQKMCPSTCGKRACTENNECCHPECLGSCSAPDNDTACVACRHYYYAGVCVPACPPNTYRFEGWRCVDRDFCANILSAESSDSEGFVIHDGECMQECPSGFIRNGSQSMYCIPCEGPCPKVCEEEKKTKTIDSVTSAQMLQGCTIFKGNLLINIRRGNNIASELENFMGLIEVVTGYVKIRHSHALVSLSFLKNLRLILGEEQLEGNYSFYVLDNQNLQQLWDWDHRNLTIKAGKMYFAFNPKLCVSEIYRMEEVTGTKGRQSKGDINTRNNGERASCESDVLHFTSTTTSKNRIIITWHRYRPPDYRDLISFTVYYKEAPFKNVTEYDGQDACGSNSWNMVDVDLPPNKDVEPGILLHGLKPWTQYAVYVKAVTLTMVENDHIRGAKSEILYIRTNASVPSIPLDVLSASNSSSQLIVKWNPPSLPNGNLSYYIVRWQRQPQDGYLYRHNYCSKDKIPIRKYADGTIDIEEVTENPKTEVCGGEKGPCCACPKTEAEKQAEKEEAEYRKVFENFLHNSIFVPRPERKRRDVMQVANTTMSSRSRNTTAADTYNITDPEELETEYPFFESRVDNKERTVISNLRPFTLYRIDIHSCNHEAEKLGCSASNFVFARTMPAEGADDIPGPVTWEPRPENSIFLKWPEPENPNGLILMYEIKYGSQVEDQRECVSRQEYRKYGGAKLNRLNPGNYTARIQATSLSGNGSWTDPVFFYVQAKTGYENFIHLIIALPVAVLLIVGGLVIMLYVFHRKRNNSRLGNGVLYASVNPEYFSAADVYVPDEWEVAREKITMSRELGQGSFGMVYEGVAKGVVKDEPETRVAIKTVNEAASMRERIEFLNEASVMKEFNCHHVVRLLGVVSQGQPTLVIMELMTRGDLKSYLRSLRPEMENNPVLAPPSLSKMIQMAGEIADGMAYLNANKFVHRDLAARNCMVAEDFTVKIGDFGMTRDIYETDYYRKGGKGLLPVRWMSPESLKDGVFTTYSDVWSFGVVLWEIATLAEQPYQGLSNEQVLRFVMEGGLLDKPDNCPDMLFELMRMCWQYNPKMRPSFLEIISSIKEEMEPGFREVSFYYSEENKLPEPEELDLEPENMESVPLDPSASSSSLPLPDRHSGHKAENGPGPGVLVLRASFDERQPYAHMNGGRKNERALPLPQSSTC
T14 sequence (Q02750 whole entry, species assumed): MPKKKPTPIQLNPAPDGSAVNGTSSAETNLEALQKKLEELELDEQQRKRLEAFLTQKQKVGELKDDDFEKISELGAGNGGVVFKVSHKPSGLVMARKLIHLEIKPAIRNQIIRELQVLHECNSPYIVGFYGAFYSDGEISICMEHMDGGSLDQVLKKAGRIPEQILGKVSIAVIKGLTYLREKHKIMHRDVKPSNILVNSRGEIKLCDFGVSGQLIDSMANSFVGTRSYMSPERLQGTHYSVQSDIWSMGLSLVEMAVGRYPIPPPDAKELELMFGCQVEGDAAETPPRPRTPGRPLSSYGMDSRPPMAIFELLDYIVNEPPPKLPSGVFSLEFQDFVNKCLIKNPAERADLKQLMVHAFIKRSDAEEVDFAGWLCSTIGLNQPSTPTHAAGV
T18 sequence (O00141 whole entry, species assumed): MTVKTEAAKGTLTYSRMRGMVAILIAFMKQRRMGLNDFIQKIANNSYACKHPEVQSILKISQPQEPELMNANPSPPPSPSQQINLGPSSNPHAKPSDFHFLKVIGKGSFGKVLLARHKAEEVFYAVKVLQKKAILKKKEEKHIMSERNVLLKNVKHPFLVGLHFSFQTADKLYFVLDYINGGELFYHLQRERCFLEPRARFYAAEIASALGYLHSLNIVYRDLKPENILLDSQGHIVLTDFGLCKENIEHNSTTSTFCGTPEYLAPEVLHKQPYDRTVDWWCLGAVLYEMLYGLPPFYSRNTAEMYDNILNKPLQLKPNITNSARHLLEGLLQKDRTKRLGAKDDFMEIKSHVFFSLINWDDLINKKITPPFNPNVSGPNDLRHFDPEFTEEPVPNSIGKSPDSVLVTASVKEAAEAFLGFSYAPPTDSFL

Nc1cnc2c(-c3c(F)cccc3F)cccn2c1=O [A2]
number of kinases inhibited with >40% inhibition [1]: 55 | LE (CDK2): 0.33 kcal/mol heavy atom | LE (CK2): 0.27 kcal/mol heavy atom | LE (IGF-1R): 0.30 kcal/mol heavy atom | LE (FGF-R1): 0.25 kcal/mol heavy atom | LE (TAK1): 0.32 kcal/mol heavy atom | LE (GCK): 0.38 kcal/mol heavy atom | LE (Aurora A): 0.26 kcal/mol heavy atom | LE (CLK2): 0.32 kcal/mol heavy atom

Nc1nc2cnc(-c3ccccc3)cn2n1 [B1]
number of kinases of the docking panel for which activity was found [1]: 31 | number of kinases inhibited with >40% inhibition [1]: 63 | LE (VEG-FR): 0.39 kcal/mol heavy atom | LE (Src): 0.41 kcal/mol heavy atom | LE (IGF-1R): 0.40 kcal/mol heavy atom | LE (CHK2): 0.42 kcal/mol heavy atom | LE (TAK1): 0.43 kcal/mol heavy atom | LE (GCK): 0.46 kcal/mol heavy atom | LE (HER4): 0.41 kcal/mol heavy atom | LE (YES1): 0.41 kcal/mol heavy atom

O=c1cc(-c2ccccc2F)nc2[nH]ccn12 [F3]
LE (PIM3): 0.40 kcal/mol heavy atom | LE (PIM1): 0.38 kcal/mol heavy atom

O=C(Nc1cnc2[nH]cnn2c1=O)c1ccccc1 [E1]
number of kinases inhibited with >40% inhibition [1]: one | inhibition at 100 µM (MSK1): > 40%

O=c1c(NC(=S)NCc2ccccc2)cnc2[nH]ccn12 [F2]
number of kinases inhibited with >40% inhibition [1]: one | inhibition at 100 µM (MKK1): > 40%

CC1CN(c2nc3ccccn3c(=O)c2N)CC(C)O1 (centres unmarked) [A1]
LE (SRPK1): 0.28 kcal/mol heavy atom | LE (CK2): 0.33 kcal/mol heavy atom | LE (Src): 0.28 kcal/mol heavy atom | LE (MAPKAP-K3): 0.33 kcal/mol heavy atom | LE (RSK2): 0.26 kcal/mol heavy atom

COc1ccc(-c2cc3c(=O)[nH]cnc3s2)cc1OC [C2]
LE (GSK-3β): 0.32 kcal/mol heavy atom | LE (SGK1): 0.28 kcal/mol heavy atom

CC(=O)Nc1nc2cnc(-c3c(C)cccc3C)cn2n1 [B4]
number of kinases of the docking panel for which activity was found [1]: did not inhibit any kinase in the docking panel

CC(C)(C)Nc1c(C2CC2)nc2[nH]cnn12 [D1]
LE (EPH-B3): 0.33 kcal/mol heavy atom | LE (FGF-R1): 0.29 kcal/mol heavy atom
